Reference: ChEMBL document CHEMBL3272231, “beta-Adrenergic blocking agents. 16. 1-(Acylaminomethyl-, ureidomethyl-, and ureidoethylphenoxy)-3-amino-2-propanols” (1977)

How the values were obtained:
Format in all cases: functional
Felis catus [1] = experiment: In vivo antagonist activity at beta-1 adrenergic receptor in cat assessed as inhibition of isoproterenol-induced tachycardia administered as infusion for 30 mins by cardiotachometric analysis; settings: 0.5 h
Felis catus [2] = experiment: In vivo antagonist activity at beta-2 adrenergic receptor in cat assessed as inhibition of vasodepressor response administered as infusion for 30 mins relative to control
Rattus norvegicus = experiment: Partial agonist activity at beta adrenergic receptor in catecholamine-depleted rat assessed as change in heart rate at 2.5 mg/kg, iv

| Structure (SMILES) | ED50 (Felis catus [1]) | inhibition (INH) (Felis catus [2]) | Activity (Rattus norvegicus) |
| --- | --- | --- | --- |
| CCCNC(=O)NCCc1ccc(OCC(O)CNC(C)(C)C)cc1 (stereo unspecified) | 0.266 mg/kg | 27% |  |
| CCOc1cc(CNC(=O)CC)ccc1OCC(O)CNC(C)C (stereo unspecified) | 0.331 mg/kg | 48% | -10 bpm |
| COc1cc(CNC(C)=O)ccc1OCC(O)CNC(C)C (stereo unspecified) | 0.312 mg/kg | 5% | -9 bpm |
| CC(C)NCC(O)COc1ccc(CNC(N)=O)cc1Br (stereo unspecified) | 0.106 mg/kg | 25% |  |
| CC(C)NCC(O)COc1ccc(CNC(=O)C(C)C)cc1Br (stereo unspecified) | 1.1 mg/kg | 43% | -16 bpm |
| COc1cc(CNC(C)=O)ccc1OCC(O)CNC(C)(C)C (stereo unspecified) | 0.045 mg/kg | 70% | -16 bpm |
| CNC(=O)NCCc1ccc(OCC(O)CNC(C)C)c(Br)c1 (stereo unspecified) | 0.88 mg/kg | 97% |  |
| CC(=O)Nc1ccc(OCC(O)CNC(C)C)cc1 (stereo unspecified) [PRACTOLOL] |  | 8% |  |
| CNC(=O)NCc1ccc(OCC(O)CNC(C)C)c(Cl)c1 (stereo unspecified) | 0.381 mg/kg | 21% |  |
| CCOc1cc(CNC(=O)CC)ccc1OCC(O)CNC(C)(C)C (stereo unspecified) | 1.41 mg/kg | 68% |  |
| CC(C)NCC(O)COc1ccc(CNC(N)=O)cc1 (stereo unspecified) | 0.117 mg/kg | 48% |  |
| C=CCc1cc(CNC(C)=O)ccc1OCC(O)CNC(C)C (stereo unspecified) | 0.035 mg/kg | 61% | -16 bpm |
| CCCC(=O)NCc1ccc(OCC(O)CNC(C)C)cc1 (stereo unspecified) | 1.4 mg/kg | 51% |  |
| CC(=O)NCc1ccc(OCC(O)CNC(C)(C)C)cc1 (stereo unspecified) | 0.21 mg/kg | 32% | -7 bpm |
| CCC(=O)NCc1ccc(OCC(O)CNC(C)(C)C)c(Br)c1 (stereo unspecified) | 0.1 mg/kg | 21% | 0 bpm |
| CCCCNC(=O)NCCc1ccc(OCC(O)CNC(C)C)cc1 (stereo unspecified) | 0.515 mg/kg | 0% |  |
| CCC(=O)NCc1ccccc1OCC(O)CNC(C)C (stereo unspecified) | 0.27 mg/kg | 0% | 44 bpm |
| CC(=O)NCc1ccccc1OCC(O)CNC(C)(C)C (stereo unspecified) | 0.13 mg/kg | 63% | 41 bpm |
| CNC(=O)NCc1ccc(OCC(O)CNC(C)C)c(Br)c1 (stereo unspecified) | 0.572 mg/kg | 0% |  |
| COc1ccc(CCNCC(O)COc2ccc(CNC(C)=O)cc2Cl)c(OC)c1 (stereo unspecified) | 1.5 mg/kg | 17% |  |
| CNC(=O)NCCc1ccc(OCC(O)CNC(C)C)cc1 (stereo unspecified) | 0.193 mg/kg |  |  |
| C=CCc1cc(CNC(=O)CC)ccc1OCC(O)CNC(C)C (stereo unspecified) | 0.098 mg/kg | 3% | -10 bpm |
| CC(=O)NCc1ccc(OCC(O)CNC(C)C)cc1 (stereo unspecified) | 0.142 mg/kg | 0% | 2 bpm |
| CCCNC(=O)NCCc1ccc(OCC(O)CNC(C)C)c(OC)c1 (stereo unspecified) | 0.867 mg/kg | 6% |  |

| Structure (SMILES) | ED50 (Felis catus [1]) | inhibition (INH) (Felis catus [2]) | Activity (Rattus norvegicus) |
| --- | --- | --- | --- |
| COc1cc(CNC(N)=O)ccc1OCC(O)CNC(C)(C)C (stereo unspecified) | 0.075 mg/kg | 68% |  |
| CCCCCCC(=O)NCc1ccc(OCC(O)CNC(C)(C)C)c(Cl)c1 (stereo unspecified) | 1.42 mg/kg | 40% |  |
| CCCc1cc(CNC(C)=O)ccc1OCC(O)CNC(C)C (stereo unspecified) | 0.04 mg/kg | 51% | -17 bpm |
| CCCCCCC(=O)NCc1ccccc1OCC(O)CNC(C)C (stereo unspecified) | 1.16 mg/kg | 19% |  |
| CC(=O)NCc1ccc(OCC(O)CNC(C)(C)C)c(Cl)c1 (stereo unspecified) | 0.021 mg/kg | 30% | -30 bpm |
| CC(=O)NCc1cc(C)ccc1OCC(O)CNC(C)C (stereo unspecified) | 0.381 mg/kg | 80% | 5 bpm |
| CC(=O)NCc1cccc(OCC(O)CNC(C)C)c1 (stereo unspecified) | 0.383 mg/kg | 83% |  |
| CC(C)NCC(O)COc1ccccc1CNC(=O)c1ccc(Cl)cc1 (stereo unspecified) | 0.304 mg/kg | 45% | 14 bpm |
| CCCc1cc(CNC(=O)CC)ccc1OCC(O)CNC(C)C (stereo unspecified) | 0.163 mg/kg | 34% | 4 bpm |
| CCC(=O)NCc1ccc(OCC(O)CNC(C)(C)C)c(OC)c1 (stereo unspecified) | 1.09 mg/kg | 72% | -12 bpm |
| CCC(=O)NCc1ccc(OCC(O)CNC(C)C)c(Br)c1 (stereo unspecified) | 0.269 mg/kg | 7% | -15 bpm |
| CCC(=O)NCc1ccc(OCC(O)CNC(C)C)c(Cl)c1 (stereo unspecified) | 0.63 mg/kg | 83% | -15 bpm |
| COc1cc(CNC(=O)C(C)C)ccc1OCC(O)CNC(C)C (stereo unspecified) | 1.14 mg/kg | 3% | -16 bpm |
| CNC(=O)NCc1ccc(OCC(O)CNC(C)C)c(OC)c1 (stereo unspecified) | 0.794 mg/kg | 87% |  |
| CC(=O)NCc1ccc(OCC(O)CNC(C)C)c(Br)c1 (stereo unspecified) | 0.083 mg/kg | 5% | -17 bpm |
| COc1cc(CNC(N)=O)ccc1OCC(O)CNC(C)C (stereo unspecified) | 0.072 mg/kg | 0% |  |
| CCNC(=O)NCc1ccc(OCC(O)CNC(C)C)c(Cl)c1 (stereo unspecified) | 1.76 mg/kg | 63% |  |
| CCNC(=O)NCCc1ccc(OCC(O)CNC(C)C)cc1 (stereo unspecified) | 1.75 mg/kg | 51% |  |
| CC(C)NCC(O)COc1ccc(CCNC(N)=O)cc1 (stereo unspecified) | 0.101 mg/kg | 47% |  |
| CCCC(=O)NCc1ccc(OCC(O)CNC(C)(C)C)c(OC)c1 (stereo unspecified) | 0.282 mg/kg | 17% | -10 bpm |
| CCCNC(=O)NCCc1ccc(OCC(O)CNC(C)C)cc1 (stereo unspecified) | 0.065 mg/kg | 19% |  |
| CCC(=O)NCc1ccc(OCC(O)CNC(C)C)cc1 (stereo unspecified) | 0.658 mg/kg | 16% | -6 bpm |
| CCC(=O)NCc1ccc(OCC(O)CNC(C)C)c(OC)c1 (stereo unspecified) | 0.449 mg/kg | 37% | -19 bpm |
